In the supplement of paper PMC10307832:

Experiments:
Assay in all cases: relative viability (nuclei count vs DMSO), 5 days (fraction); higher = more cells survive
[1] = compound: CS(=O)(=O)c1ccc(-c2cnc(N)c(C(=O)Nc3ccccc3)n2)cc1 [VE-821] + Cc1nc(NC(=O)N2CCC[C@H]2C(N)=O)sc1-c1ccnc(C(C)(C)C(F)(F)F)c1 [Alpelisib] (partner 2 µM)
How it was run: (§1)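 After 5 days of treatment, lung cancer cells in 1536-well plates were fixed and stained in a single step (final 0.05% Triton X-100, 1% formaldehyde, 1 ug/ml Hoechst) and their nuclei counted on 4× images. Treatment had been applied by pin tool the day after seeding as one drug alone or as a fixed anchor-drug dose with five library-drug doses (not always all listed) in √10 steps. Relative viability is the nuclei count of treated wells divided by that of vehicle wells, and values are medians of duplicate plates.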

[2] = compound: CS(=O)(=O)c1ccc(C(=O)Nc2ccc(Cl)c(-c3ccccn3)c2)c(Cl)c1 [Vismodegib] + Cc1cc(Nc2cc(N3CCN(C)CC3)nc(Sc3ccc(NC(=O)C4CC4)cc3)n2)n[nH]1 [Tozasertib] (partner 0.1 µM)
How it was run: as §1

[3] = compound: N#CC[C@H](C1CCCC1)n1cc(-c2ncnc3[nH]ccc23)cn1 [Ruxolitinib] + CC1(C)CCC(c2ccc(Cl)cc2)=C(CN2CCN(c3ccc(C(=O)NS(=O)(=O)c4ccc(N[C@H](CCN5CCOCC5)CSc5ccccc5)c(S(=O)(=O)C(F)(F)F)c4)cc3)CC2)C1 [Navitoclax] (partner 0.5 µM)
How it was run: as §1

[4] = compound: N#CC[C@H](C1CCCC1)n1cc(-c2ncnc3[nH]ccc23)cn1 [Ruxolitinib] + NC(=O)Nc1cc(-c2cccc(F)c2)sc1C(=O)N[C@H]1CCCNC1 [AZD7762] (partner 0.2 µM)
How it was run: as §1

Row | Cell Line | relative viability ([1]; first compound 0.08 µM) | relative viability ([1]; first compound 0.253 µM) | relative viability ([1]; first compound 0.8 µM) | relative viability ([1]; first compound 2.53 µM) | relative viability ([1]; first compound 8 µM) | relative viability ([2]; first compound 0.08 µM) | relative viability ([2]; first compound 0.253 µM) | relative viability ([2]; first compound 0.8 µM) | relative viability ([2]; first compound 2.53 µM) | relative viability ([2]; first compound 8 µM) | relative viability ([3]; first compound 0.08 µM) | relative viability ([3]; first compound 0.253 µM) | relative viability ([3]; first compound 0.8 µM) | relative viability ([3]; first compound 2.53 µM) | relative viability ([3]; first compound 8 µM) | relative viability ([4]; first compound 0.08 µM) | relative viability ([4]; first compound 0.253 µM) | relative viability ([4]; first compound 0.8 µM) | relative viability ([4]; first compound 2.53 µM) | relative viability ([4]; first compound 8 µM)
1 | NCI-H1915 | 1.13 | 1.03 | 1.06 | 1.16 | 0.941 | 0.431 | 0.386 | 0.466 | 0.413 | 0.414 | 0.79 | 0.838 | 0.791 | 0.731 | 0.691 | 0.687 | 0.681 | 0.753 | 0.572 | 0.593
2 | NCI-H23 | 0.734 | 0.69 | 0.512 | 0.624 | 0.416 | 0.362 | 0.425 | 0.386 | 0.297 | 0.301 | 0.716 | 1.12 | 0.978 | 0.801 | 0.929 | 0.456 | 0.303 | 0.279 | 0.206 | 0.277
3 | EMC-BAC-2 | 0.877 | 0.782 | 0.721 | 0.75 | 0.757 | 0.281 | 0.284 | 0.288 | 0.292 | 0.316 | 1.11 | 1.13 | 1.18 | 1.09 | 1.06 | 1.07 | 1.03 | 1.3 | 1.08 | 0.695
4 | NCI-H460 | 0.561 | 0.394 | 0.23 | 0.279 | 0.0265 | 0.55 | 0.447 | 0.377 | 0.367 | 0.298 | 1.17 | 1.34 | 1.34 | 1.13 | 0.656 |  | 0.626 | 0.696 | 0.656 | 0.676
5 | 201T | 1.11 | 1.03 | 0.878 | 1.09 | 0.85 | 0.914 | 0.919 | 0.987 | 0.946 | 0.966 | 1.25 | 1.31 | 1.44 | 1.48 | 1.36 | 0.583 | 0.622 | 0.595 | 0.649 | 0.763
6 | NCI-H1993 | 0.704 | 0.757 | 0.655 | 0.702 | 0.633 | 0.529 | 0.548 | 0.584 | 0.632 | 0.593 | 0.858 | 0.869 | 0.998 | 1.02 | 0.932 | 0.828 | 0.646 | 1.05 | 0.794 | 0.985
7 | RERF-LC-KJ | 0.898 | 0.774 | 0.664 | 0.799 | 0.712 | 0.495 | 0.532 | 0.413 | 0.506 | 0.449 | 1.05 | 0.963 | 1.59 | 1.15 | 0.657 | 0.949 |  | 1 | 0.98 | 1.01
8 | NCI-H1755 | 1.01 | 0.887 | 0.622 | 0.946 | 0.62 | 0.568 | 0.575 | 0.534 | 0.556 | 0.524 | 0.919 | 0.925 | 1 | 0.844 | 0.732 | 0.497 | 0.465 | 0.573 | 0.471 | 0.343
9 | NCI-H1666 | 1.03 | 1.02 | 0.887 | 0.926 | 0.58 | 0.564 | 0.684 | 0.591 | 0.585 | 0.7 | 0.876 | 1.01 | 1.1 | 0.759 | 1.07 | 0.869 | 0.868 | 0.921 | 0.841 | 0.974
10 | NCI-H2085 | 1 | 0.853 | 0.713 | 0.984 | 0.922 | 0.835 | 0.849 | 0.85 | 0.698 | 0.621 | 1.12 | 1.07 | 1.2 | 1.11 | 0.999 | 1.08 | 1.1 | 1.01 | 0.921 | 0.984
11 | BEN | 1.09 | 1.01 | 0.877 | 0.968 | 0.976 | 0.545 | 0.555 | 0.513 | 0.605 | 0.466 | 0.0601 | 0.0767 | 0.0749 | 0.0665 | 0.0571 | 0.777 | 0.655 | 0.793 | 0.813 | 0.827
12 | NCI-H1395 | 1.46 | 1.08 | 0.705 | 1.14 | 0.659 | 0.823 | 0.771 | 0.71 | 0.667 | 0.81 |  | 0.993 | 1.17 | 1.13 | 0.944 | 0.422 | 0.385 | 0.424 | 0.356 | 0.407
13 | LCLC-97TM1 | 0.315 | 0.244 | 0.22 | 0.292 | 0.222 | 0.22 | 0.284 | 0.218 | 0.239 | 0.273 | 0.459 | 0.384 | 0.537 | 0.492 | 0.354 | 0.401 | 0.267 | 0.317 | 0.287 | 0.53
14 | HCC-827 | 1.05 | 0.972 | 0.784 | 1.07 | 0.825 | 0.42 | 0.419 | 0.432 | 0.392 | 0.423 |  | 0.863 | 0.908 | 0.857 | 0.845 |  | 0.178 | 0.238 | 0.236 | 0.308
15 | NCI-H596 | 0.486 | 0.458 | 0.39 | 0.511 | 0.413 | 1 | 0.814 | 0.932 | 0.838 | 0.769 | 0.903 | 1.05 | 1 | 1.01 | 1.14 | 1.35 | 1.04 | 1.21 | 1.09 | 1.27
16 | NCI-H1734 | 0.804 | 0.745 | 0.468 | 0.758 | 0.553 | 0.249 | 0.281 | 0.267 | 0.263 | 0.263 | 0.749 | 0.698 | 0.899 | 0.724 | 0.785 | 0.638 | 0.629 | 0.662 | 0.54 | 0.602
